PubChem BioAssay (NCI)
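Each compound was tested at five concentrations against cells in 96-well plates for 48 hours. GI50: concentration for 50% inhibition of growth. TGI denotes the concentration required for complete inhibition of growth.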

How the values were obtained:
Test in all cases: growth of human tumour cells (NCI), 48 h
[1] = tested on: DU-145 prostate
[2] = tested on: SR leukemia
[3] = tested on: HCT-15 colon
[4] = tested on: SW-620 colon
[5] = tested on: OVCAR-8 ovarian
[6] = tested on: HS 578T breast
[7] = tested on: SK-MEL-5 melanoma
[8] = tested on: UACC-62 melanoma
[9] = tested on: LOX IMVI melanoma
[10] = tested on: ACHN renal
[11] = tested on: NCI-H226 lung
[12] = tested on: M14 melanoma
[13] = tested on: TK-10 renal
[14] = tested on: RXF 393 renal
[15] = tested on: IGROV1 ovarian
[16] = tested on: SNB-75 CNS
[17] = tested on: OVCAR-5 ovarian
[18] = tested on: OVCAR-4 ovarian
[19] = tested on: SNB-19 CNS
[20] = tested on: UO-31 renal
[21] = tested on: BT-549 breast
[22] = tested on: MALME-3M melanoma
[23] = tested on: SF-539 CNS
[24] = tested on: SF-268 CNS
[25] = tested on: UACC-257 melanoma
[26] = tested on: NCI-H460 lung
[27] = tested on: T-47D breast
[28] = tested on: KM12 colon
[29] = tested on: SK-MEL-28 melanoma
[30] = tested on: COLO 205 colon
[31] = tested on: NCI/ADR-RES ovarian
[32] = tested on: HT29 colon
[33] = tested on: MDA-MB-435
[34] = tested on: A549 NSCLC
[35] = tested on: NCI-H23 lung
[36] = tested on: U251 CNS
[37] = tested on: PC-3 prostate
[38] = tested on: SK-MEL-2 melanoma
[39] = tested on: RPMI-8226 leukemia
[40] = tested on: HCC-2998 colon
[41] = tested on: A498 renal
[42] = tested on: HL-60(TB) leukemia
[43] = tested on: MCF7 breast
[44] = tested on: HOP-92 NSCLC
[45] = tested on: MDA-MB-231 breast
[46] = tested on: OVCAR-3 ovarian
[47] = tested on: HOP-62 NSCLC
[48] = tested on: MOLT-4 leukemia
[49] = tested on: HCT-116 colon
[50] = tested on: 786-0 renal
[51] = tested on: SF-295 CNS
[52] = tested on: CCRF-CEM leukemia
[53] = tested on: SN12C renal
[54] = tested on: NCI-H522 lung
[55] = tested on: CAKI-1 renal
[56] = tested on: EKVX NSCLC
[57] = tested on: K-562 leukemia
[58] = tested on: SK-OV-3 ovarian

## CCOC(=O)C1=C(C)N(CC(C)C)C2(O)C(OC)CC(=O)C3C(=O)N(c4ccccc4)C(=O)C132 (configuration not stated)
[1]
  TGI: > 100 µM
[2]
  TGI: 49.9 µM
[3]
  TGI: > 100 µM
[4]
  TGI: 77.9 µM
[5]
  TGI: 59.6 µM
[6]
  TGI: > 100 µM
[7]
  TGI: 43.9 µM
[8]
  TGI: 47.6 µM
[9]
  TGI: > 100 µM
[10]
  TGI: 72 µM
[11]
  TGI: 57.7 µM
[12]
  TGI: > 100 µM
[13]
  TGI: > 100 µM
[14]
  TGI: 54.5 µM
[15]
  TGI: 40.2 µM
[16]
  TGI: 75.4 µM
[17]
  TGI: > 100 µM
[18]
  TGI: > 100 µM
[19]
  TGI: > 100 µM
[20]
  TGI: 39.2 µM
[21]
  TGI: > 100 µM
[22]
  TGI: 96.7 µM
[23]
  TGI: > 100 µM
[24]
  TGI: > 100 µM
[25]
  TGI: > 100 µM
[26]
  TGI: > 100 µM
[27]
  TGI: > 100 µM
[28]
  TGI: 90 µM
[29]
  TGI: 70.1 µM
[30]
  TGI: > 100 µM
[31]
  TGI: > 100 µM
[32]
  TGI: 57.1 µM
[33]
  TGI: > 100 µM
[34]
  TGI: > 100 µM
[35]
  TGI: > 100 µM
[36]
  TGI: > 100 µM
[37]
  TGI: > 100 µM
[38]
  TGI: 51.1 µM
[39]
  TGI: > 100 µM
[40]
  TGI: 53.8 µM
[41]
  TGI: > 100 µM
[42]
  TGI: 69.2 µM
[43]
  TGI: > 100 µM
[44]
  TGI: > 100 µM
[45]
  TGI: > 100 µM
[46]
  TGI: > 100 µM
[47]
  TGI: > 100 µM
[48]
  TGI: 75.6 µM
[49]
  TGI: > 100 µM
[50]
  TGI: > 100 µM
[51]
  TGI: > 100 µM
[52]
  TGI: > 100 µM
[53]
  TGI: > 100 µM
[54]
  TGI: 34.5 µM
[55]
  TGI: 98.7 µM
[56]
  TGI: > 100 µM
[57]
  TGI: > 100 µM

## COC(=O)C1=Nc2ccc(F)cc2/C1=C/c1sc(=S)[nH]c1O
[1]
  GI50: 0.222 µM
  TGI: > 36.2 µM
[2]
  GI50: 0.0476 µM
  TGI: > 100 µM
[3]
  GI50: 0.0663 µM
  TGI: > 100 µM
[4]
  GI50: 0.0499 µM
  TGI: > 100 µM
[5]
  GI50: 0.202 µM
  TGI: 37.7 µM
[6]
  GI50: 0.0518 µM
  TGI: 21.6 µM
[58]
  GI50: 0.513 µM
  TGI: 31.3 µM
[7]
  GI50: 0.131 µM
  TGI: 0.745 µM
[8]
  GI50: 0.248 µM
  TGI: > 47 µM
[9]
  GI50: 0.0943 µM
  TGI: > 32.6 µM
[10]
  GI50: 0.0697 µM
  TGI: 18 µM
[11]
  GI50: 0.959 µM
  TGI: 10.3 µM
[12]
  GI50: 0.0543 µM
  TGI: > 100 µM
[13]
  GI50: 0.848 µM
  TGI: 19.3 µM
[14]
  GI50: 0.0762 µM
  TGI: 4.1 µM
[15]
  GI50: 0.275 µM
  TGI: 14.9 µM
[16]
  GI50: 0.0301 µM
  TGI: 11.8 µM
[17]
  GI50: 0.91 µM
  TGI: > 100 µM
[18]
  GI50: 0.692 µM
  TGI: 23.8 µM
[19]
  GI50: 0.179 µM
  TGI: > 52.9 µM
[20]
  GI50: 0.457 µM
  TGI: 5.14 µM
[21]
  GI50: 0.161 µM
  TGI: 3.31 µM
[22]
  GI50: 0.191 µM
  TGI: 29 µM
[23]
  GI50: 0.0743 µM
  TGI: 0.751 µM
[24]
  GI50: 0.575 µM
  TGI: 29.9 µM
[25]
  GI50: 6.13 µM
  TGI: > 100 µM
[26]
  GI50: 0.0804 µM
  TGI: 10.1 µM
[27]
  GI50: 4.41 µM
  TGI: > 100 µM
[28]
  GI50: 0.0734 µM
  TGI: 10.7 µM
[29]
  GI50: 1.06 µM
  TGI: > 83.5 µM
[30]
  GI50: 0.311 µM
  TGI: 1.24 µM
[31]
  GI50: 0.0704 µM
  TGI: 11.5 µM
[32]
  GI50: 0.559 µM
  TGI: 11.9 µM
[33]
  GI50: 0.0233 µM
  TGI: 0.0605 µM
[34]
  GI50: 0.254 µM
  TGI: > 100 µM
[35]
  GI50: 0.408 µM
  TGI: > 100 µM
[36]
  GI50: 0.0838 µM
  TGI: 14.2 µM
[37]
  GI50: 0.128 µM
  TGI: 26.3 µM
[38]
  GI50: 0.806 µM
  TGI: 41 µM
[39]
  GI50: 0.305 µM
  TGI: 3.92 µM
[40]
  GI50: 0.41 µM
  TGI: 12.1 µM
[41]
  GI50: 0.202 µM
  TGI: 0.942 µM
[42]
  GI50: 0.263 µM
[43]
  GI50: 0.26 µM
  TGI: 15 µM
[44]
  GI50: 1.19 µM
  TGI: 14.4 µM
[45]
  GI50: 0.358 µM
  TGI: 4.26 µM
[46]
  GI50: 0.0441 µM
  TGI: 3.66 µM
[47]
  GI50: 0.18 µM
  TGI: 18.7 µM
[48]
  GI50: 0.236 µM
  TGI: > 100 µM
[49]
  GI50: 0.0468 µM
  TGI: 16.7 µM
[50]
  GI50: 0.122 µM
  TGI: 15.1 µM
[51]
  GI50: 0.125 µM
  TGI: 13.2 µM
[52]
  GI50: 0.133 µM
  TGI: > 100 µM
[53]
  GI50: 0.354 µM
  TGI: > 26.3 µM
[54]
  GI50: 0.0363 µM
  TGI: 1.09 µM
[55]
  GI50: 0.097 µM
  TGI: 7 µM
[56]
  GI50: 0.987 µM
  TGI: > 100 µM
[57]
  GI50: 0.045 µM
  TGI: > 100 µM
